Reference: patent US7541363B2, “Microcrystal” (Kyowa Hakko Kirin Co., Ltd., priority 2003, dated 2009)

Experiments:
adenosine A2 receptor = settings: cited from earlier work
[1] = double bond (vinylene) moiety apt to be isomerized; cited from earlier work
[2] = Crystallinity by powder X-ray diffraction; type: physicochemical
Text: Although there is no particular limitation for the “microcrystal(s) of (E)-8-(3,4-dimethoxystyryl)-1,3-diethyl-7-methyl-3,7-dihydro-1H-purine-2,6-dione having an average particle size of less than 50 μm” (that is “microcrystal(s) of Compound 1”) of the present invention so far as it is the crystalline Compound 1 having an average particle size of less than 50 μm, among them microcrystal(s) having an average particle size of 0.5 to 20 μm is/are preferable. The “microcrystal(s) of Compound 1” having a crystallinity of 20% or more is/are more preferable. Among them, the “microcrystal(s) of Compound 1” having a crystallinity of 30% or more is/are still more preferable and the “microcrystal(s) of Compound 1” having a crystallinity of 40% or more is/are most preferable. Incidentally, the average particle size thereof can be measured by using, for example, a laser diffraction/scattering particle size distribution analyzer (e.g., Mastersizer 2000, Ver. 2.00J; manufactured by Malvern Instruments), an image analyzer (e.g., Luzex® AP; manufactured by Nileco) or the like, and can be calculated as the mean of the particle size distribution. The crystallinity thereof can be calculated by measuring the integral intensity of the diffraction peak at a specific angle of diffraction 2θ by using a powder X-ray diffractmeter (e.g., JDX 8030; manufactured by Nippon Denshi).
The crystallinity of Compound 1 in each Sample (hereinafter, may be just referred to as the crystallinity) was calculated by the following method after measuring the diffraction peak of each Sample by changing from 0° to 40° at the angle of diffraction 2θ by a powder X-ray diffractmeter.
A calibration curve used for the calculation of the relative crystallinity was prepared by measuring the integral intensity of the diffraction peak at angle of diffraction 2θ=about 16° using physical mixtures prepared in various ratios and then plotting the ratios of amounts of the “crystalline Compound 1” in the physical mixtures against the integral intensities of the diffraction peaks respectively.
An integral intensity of the diffraction peak of the sample at the angle of diffraction 2θ=about 16° was measured. An amount of the “crystalline Compound 1” in each sample was calculated from the measured integral intensity on the basis of the above-described calibration curve, and the relative crystallinity (%) of each sample was determined from the following formula as the ratio of the amount of “Compound 1” (“crystalline Compound 1” and “an amorphous Compound 1”) against the amount of the “crystalline Compound 1”. A crystallinity (%) was determined by a proportional calculation from the relative crystallinity (%) determined hereinabove and the crystallinity (87.2%) of the unpulverized “crystals of Compound 1”. Relative Crystallinity (%)=(Amount of the “crystalline Compound 1”/Amount of “Compound 1”)×100 <Method for Measurement of Photostability>

[3] = Comparison of absorption in oral administration (plasma concentration); type: in vivo, male rats of SD strain; settings: male SD rats; for Cmax (maximum concentration in plasma): 0.3 mg/mL suspension in 0.5 w/v % methyl cellulose at 10 mL/kg, mean ± s.e.m., three rats
Procedure: Each of Crystal B (the average particle size of crystals: 181 μm) and Microcrystals B (the average particle size of crystals: 11 μm) obtained in Example 3 was suspended in a 0.5 w/v % aqueous solution of methyl cellulose to prepare a drug liquid (0.3 mg/mL) for administration. The resulting drug liquid was orally administered to male rats of SD strain (body weight: 209 to 233 g; Nippon Charles River) at the dose of 10 mL/kg. Blood of the rat (about 0.3 mL for each time) was sequentially collected from tail vein by using a heparin-treated capillary tube 0.25, 0.5, 1, 2, 4, 6, 8, 12 and 24 hour(s) after the administration. The resulting blood was centrifuged (1,950×g, 10 minutes, 4° C.) and plasma was separated. Concentration of “Compound 1” in the resulting plasma was measured by HPLC and mean value from three rats was calculated. Maximum concentration in plasma (Cmax), the area under the plasma curve of concentration-time curve between the administration and the point which can be determined quantitatively finally (AUC0-t) and the area under the plasma curve of concentration-time curve between the administration and infinitive time (AUC0-∞), of case in which each of Crystals B and Microcrystals B were orally administered to the rat, are shown in Table 2. Incidentally, conditions for the measurement by HPLC are as follows. Instrument for analysis: Series L-7000 (manufactured by Hitachi) Column: Ultron VX-ODS (φ4.6×150 mm) Column temperature: 30° C. Mobile phase: 10 mmol/L acetate buffer (pH 5.7)/acetonitrile=53/47 […] Detecting condition: UV 360 nm

[4] = Solubility in water at room temperature against elapsed time; type: physicochemical; settings: 2 mg in water (200 mL) at room temperature
Procedure: By using Crystals A (the average particle size of crystals: 167 μm, 2 mg) and Microcrystals A (the particle size of microcrystals D100=8.7 μm, 2 mg) obtained in Example 2, the solubility of each of them in water (200 mL) at room temperature was measured.

[5] = Aggregation and dispersing property during steps for preparing pharmaceutical formulation; type: physicochemical
[6] = Photostability: residual ratio of Compound 1 after irradiation under a fluorescent lamp; type: physicochemical; settings: no HPMC, unpulverized; about 5,000 lx fluorescent lamp, 8 hours
Procedure: Photostability of each sample was traced by measuring the residual ratio (%) of “Compound 1” in the sample according to the following method.
Transparent glass vials, in which the samples were weighed and filled, were stored at about 5,000 lx under a fluorescent lamp, and each sample was sampled 8 hours after the irradiation. The sampled sample was dissolved in a mixed solvent of water and acetonitrile (water:acetonitrile=60:40), and then the amount of “Compound 1” in the sample was determined quantitatively by using a high-performance liquid chromatography (HPLC). Amount of “Compound 1” before irradiation was defined as 100% and the amount of “Compound 1” after irradiation thereto was calculated as the residual ratio (%).
Conditions for the measurement by HPLC are as follows.
Instrument for analysis: Series LC-6 (manufactured by Shimadzu)
Column: Inertsil ODS-2 (φ6×150 mm)
Column temperature: 25° C.
Mobile phase: 50 mmol/L KH2PO4 (pH 6.1, KOH)/acetonitrile=60/40
Detecting condition: UV 248 nm

[7] = crystals synthesized by the prior-art process; cited from earlier work
[8] = drug substance crystals as obtained

Compound: CCn1c(=O)c2c(nc(/C=C/c3ccc(OC)c(OC)c3)n2C)n(CC)c1=O [Compound 1, (E)-8-(3,4-dimethoxystyryl)-1,3-diethyl-7-methyl-3,7-dihydro-1H-purine-2,6-dione]
- adenosine A2 receptor antagonistic activity (adenosine A2 receptor): shows an adenosine A2 receptor antagonistic activity
- stability under light [1]: unstable particularly under light

Compound: CCn1c(=O)c2c(nc(/C=C/c3ccc(OC)c(OC)c3)n2C)n(CC)c1=O [Crystals B, (E)-8-(3,4-dimethoxystyryl)-1,3-diethyl-7-methyl-3,7-dihydro-1H-purine-2,6-dione]
- crystallinity [2, 8]: 71.6%
- Cmax (maximum concentration in plasma) [3]: 72.6 ± 31.7 ng/mL

Compound: CCn1c(=O)c2c(nc(/C=C/c3ccc(OC)c(OC)c3)n2C)n(CC)c1=O [Microcrystals A, (E)-8-(3,4-dimethoxystyryl)-1,3-diethyl-7-methyl-3,7-dihydro-1H-purine-2,6-dione]
- solubility of Compound 1 [4]: good solubility
- dissolving velocity ([4]; compared with Crystals A): quick dissolving velocity as compared to Crystals A
- crystallinity [2, 8]: 84.6%
- aggregation of the crystals during steps for preparing pharmaceutical formulation [5]: no phenomenon of aggregation
- dispersing property ([5]; compared with Crystals A): excellent dispersing property as compared to Crystals A

Compound: CCn1c(=O)c2c(nc(/C=C/c3ccc(OC)c(OC)c3)n2C)n(CC)c1=O [Microcrystals B, (E)-8-(3,4-dimethoxystyryl)-1,3-diethyl-7-methyl-3,7-dihydro-1H-purine-2,6-dione]
- crystallinity [2, 8]: 67.3%
- Cmax (maximum concentration in plasma) [3]: 238 ± 4 ng/mL
- absorption in oral administration ([3]; compared with Crystals B): better absorption in oral administration than Crystals B

Compound: CCn1c(=O)c2c(nc(/C=C/c3ccc(OC)c(OC)c3)n2C)n(CC)c1=O [Unpulverized “Crystals of Compound 1”, (E)-8-(3,4-dimethoxystyryl)-1,3-diethyl-7-methyl-3,7-dihydro-1H-purine-2,6-dione]
- crystallinity [2, 8]: 87.2%
- crystallinity ([2]; no HPMC, unpulverized): 87.2%
- Residual Rate of “Compound 1” [6]: 100.0%
- solubility in water [7]: low
